Legend:
SARS-CoV-2 [1] = test: In vivo antiviral activity against SARS CoV-2 Gamma strain (hCoV-19/Japan/TY7-501/202) harbouring spike protein K417T mutant intranasally inoculated in BALB/c mouse assessed as reduction in lung intrapulmonary viral titer administered orally immediately after viral infection and 12 hrs after infection measured after 24 hrs of post infection; format: functional, organism-based; conditions: Severe acute respiratory syndrome coronavirus 2, route po, DDE = dose-dependent effect
SARS-CoV-2 [2] = test: In vivo antiviral activity against SARS CoV-2 gamma strain (hCoV-19/Japan/TY7-501/202) harbouring spike protein K417T mutant intranasally inoculated in BALB/c mouse assessed as reduction in lung intrapulmonary viral titer at 16 to 32 mg/kg, po immediately after viral infection and 12 hrs after viral infection measured after 24 hrs of post infection; format: functional, Severe acute respiratory syndrome coronavirus 2; conditions: dose 16-32 mg/kg

Cn1cnc(Cn2c(=O)[nH]/c(=N\c3cc4cn(C)nc4cc3Cl)n(Cc3cc(F)c(F)cc3F)c2=O)n1
Activity (SARS-CoV-2 [1]): Dde
TCID50 (SARS-CoV-2 [2]): 1.8 log10/ml
